Converted amounts (≈) assume the structure as drawn. Like-named read-outs stand apart in the source and are kept apart here.
What was measured:
[1] = system: bronchospasm against acetylcholine; test: Broncholytic effect at the narcotized guinea-pig, bronchospasm by acetylcholine; assay type: in vivo; settings: Cavia porcellus, iv, 2 min, 2 min. i.p.; for change in vivo at 3 mg/kg: 3 mg/kg i.v.; for change in vivo at 10 mg/kg: 10 mg/kg i.v.
Protocol: (§1) 2. Broncholytic effect at the narcotized guinea-pig
(§2) This test was performed according to H. Konsett and R. Rossler ("Archiv exp. Path. Pharmak." vol. 195 (1940), page 71).

[2] = system: bronchospasm against histamine; test: Broncholytic effect at the narcotized guinea-pig, bronchospasm by histamine; assay type: in vivo; settings: for change in vivo at 3 mg/kg: 3 mg/kg i.v.; for change in vivo at 10 mg/kg: 10 mg/kg i.v.; for Broncholytic effect against histamine compared with sample 8: guinea pig, in vivo
Protocol: as §1, §2

[3] = system: bronchospasm against acrotonine; test: Broncholytic effect at the narcotized guinea-pig, bronchospasm by acrotonine (so in the source); assay type: in vivo; settings: 2 min. i.p.
Protocol: as §1, §2

human blood = test: Fibrinolytic effect in vitro, Hanging-Clot-test; assay type: biochemical; settings: for Minimum concentration for partial lysis / Minimum concentration for complete lysis: human blood
Protocol: This effect was measured by the Hanging-Clot-test according to K. N. von Kaulla ("Journ. med. Chem." vol. 8 (1965), page 164) in using human blood. The incubation time was 24 or 48 hours.

[4] = Toxicity in the mouse (LD50); settings: in vivo
Protocol: (§3) The toxicity was determined as LD50 --range or as LD50 according to Litchfield and Wilcoxon ("J. Pharmacol. exp. Ther." 97 (1949), page 399) in the mouse.

Solubility = assay type: physicochemical; settings: for solubility: water, 25° C.
mouse [5] = test: Toxicity in the mouse (LD50); settings: in vivo, ip
Protocol: as §3

[6] = system: cerebral blood circulation; test: Cerebral blood circulation after intraduodenal administration to narcotized cats; assay type: in vivo, cat
cerebral blood perfusion = test: Cerebral blood perfusion by fluvography at the cat (i.v.); assay type: in vivo
Protocol: (§4) Animal tests were carried out with various oxoalkylxanthine derivatives, in which the toxicity in the mouse, the increase of cerebral and muscular blood perfusion at the cat and the fibrinolytic effect in vitro in the Hanging-Clot-test were measured. Furthermore the broncholytic effect of various compounds was tested.
(§5) 1. Cerebral and muscular blood perfusion by fluvography
(§6) These tests were performed at the cat according to K. Popendiker, I. Boksay and V. Bollmann ("Arzneimittel Forschung" vol. 21 (1971), page 1160).
(§7) The values obtained in the mentioned test 1 are given as Δλ and as half-life values in Table 2 and the results of tests 2 to 5 are enumerated in Table 3. In Table 2 Δλ is the change of blood perfusion.

muscular blood perfusion = test: Muscular blood perfusion by fluvography at the cat (i.v.); assay type: in vivo
Protocol: as §4, §5, §6, §7

isolated trancheal chain = test: Broncholytic effect at the isolated tracheal chain (isoprenaline reaction)
Protocol: 3. Broncholytic effect at the isolated trancheal chain
This test was performed according to J. C. Castillo and E. J. de Beer ("J. Pharm. Ther." vol. 90 (1947), page 104).

blood vascular system = settings: known compounds; cited from earlier work
mouse [7] = settings: known compounds; cited from earlier work
[8] = Cavia porcellus, iv, 2 min, 2 min. i.p., sample in propanediol
[9] = ip, read-out: Toxicity (LD50-range or LD50)
[10] = Cavia porcellus, iv, 2 min, 2 min. i.p.

SMILES: CCCn1c(=O)c2c(ncn2CCCCC(C)=O)n(C)c1=O [Sample 1, 1-n-Propyl-3-methyl-7-(5-oxohexyl)-xanthine]
- change in vivo at 3 mg/kg ([1]; sample in propanediol): -33%
- change in vivo at 10 mg/kg ([1]; sample in propanediol): -55%
- change in vivo at 3 mg/kg [2, 8]: -63%
- change in vivo at 10 mg/kg [2, 8]: -73%
- Change of the bronchospasm in % against acrotonine ([3]; 3 mg/kg i.v., sample in propanediol): -40%
- Change of the bronchospasm in % against acrotonine ([3]; 10 mg/kg i.v., sample in propanediol, sample 1: Longtime effect (footnote 1)): -82%
- Fibrinolytic effect relative to comparison sample 8 (human blood): two times as strong
- Minimum concentration for partial lysis (human blood; 24 hours incubation): 40 mmol
- Minimum concentration for complete lysis (human blood; 48 hours incubation (bracket)): 20 mmol
- LD50 [4, 9]: 100 to 250 mg/kg
- Solubility in dimethyl sulphoxide (Solubility): over 10%
- Solubility in dimethylformamide (Solubility): over 10%
- Solubility in ethanol (Solubility): over 10%

SMILES: CC(=O)CCCCn1cnc2c1c(=O)[nH]c(=O)n2C [Example 11, 3-methyl-7-(5-oxohexyl)-xanthine]
- LD50 ([4]; ip, mice, intraperitoneally, read-out: LD50 -value for mice): 1000 to 1500 mg/kg
- Compatibility compared with ethylene-diamine-theophylline (mouse [5]): much more compatible
- Increase in cerebral blood circulation compared with ethylene-diamine-theophylline [6]: by several times superior
- Increase in the cerebral blood circulation [6]: significant and permanent increase in the cerebral blood circulation

SMILES: CCCn1cnc2c1c(=O)n(CCCCC(C)=O)c(=O)n2C [Sample 4, 1-(5-Oxohexyl)-3-methyl-7-propyl-xanthine]
- Cerebral blood perfusion half-life (cerebral blood perfusion; 1 mg/kg i.v.): 4.0 min
- Cerebral blood perfusion Δλ (change of blood perfusion) (cerebral blood perfusion; 1 mg/kg i.v.): +4.33
- Cerebral blood perfusion half-life (cerebral blood perfusion; 2 mg/kg i.v.): 5.8 min
- Cerebral blood perfusion Δλ (change of blood perfusion) (cerebral blood perfusion; 2 mg/kg i.v.): +6.33
- Cerebral blood perfusion half-life (cerebral blood perfusion; 5 mg/kg i.v.): 14.7 min
- Cerebral blood perfusion Δλ (change of blood perfusion) (cerebral blood perfusion; 5 mg/kg i.v.): +13.00
- Cerebral blood perfusion compared with sample 8 (in words) (cerebral blood perfusion; i.v.): longer cerebral blood perfusion
- Cerebral blood perfusion relative to comparison sample 8 (cerebral blood perfusion; i.v., all dose values, corresponding dosages): more than 10 times
- Muscular blood perfusion half-life (muscular blood perfusion; 1 mg/kg i.v.): 3.70 min
- Muscular blood perfusion Δλ (change of blood perfusion) (muscular blood perfusion; 1 mg/kg i.v.): +0.13
- Muscular blood perfusion half-life (muscular blood perfusion; 2 mg/kg i.v.): 0.80 min
- Muscular blood perfusion Δλ (change of blood perfusion) (muscular blood perfusion; 2 mg/kg i.v.): +0.07
- Muscular blood perfusion half-life (muscular blood perfusion; 5 mg/kg i.v.): 3.70 min
- Muscular blood perfusion Δλ (change of blood perfusion) (muscular blood perfusion; 5 mg/kg i.v.): +0.08
- Muscular blood perfusion compared with sample 8 (in words) (muscular blood perfusion; i.v., corresponding dosages): stronger muscular blood perfusion
- change in vivo at 3 mg/kg [1]: -40%
- change in vivo at 10 mg/kg [1]: -75%
- change in vivo at 3 mg/kg [2, 10]: -75%
- change in vivo at 10 mg/kg [2, 10]: -86%
- Broncholytic effect against histamine compared with sample 8 [2]: improved broncholytic effect against histamine
- Change of the bronchospasm in % against acrotonine ([3]; 3 mg/kg i.v.): -83%
- Change of the bronchospasm in % against acrotonine ([3]; 10 mg/kg i.v.): -93%
- Inhibition of isoprenaline reaction in % (isolated trancheal chain; concentration 3 × 10^-5): 94%
- Inhibition of isoprenaline reaction in % (isolated trancheal chain; concentration 3 × 10^-6): 2%
- Inhibition of isoprenaline reaction in % (isolated trancheal chain; concentration 10^-4): 100%
- Inhibition of isoprenaline reaction in % (isolated trancheal chain; concentration 10^-5): 20%
- Fibrinolytic effect relative to comparison sample 8 (human blood): two times as strong
- Minimum concentration for complete lysis (human blood; 24 hours incubation): 50 mmol
- Minimum concentration for complete lysis (human blood; 48 hours incubation (bracket)): 25 mmol
- LD50 ([4]; iv, read-out: Toxicity (LD50)): 107 mg/kg
- LD50 ([4]; po, per os, read-out: Toxicity (LD50)): 860 mg/kg
- Solubility in dimethyl sulphoxide (Solubility): over 10%
- Solubility in ethanol (Solubility): over 10%
- solubility (Solubility): ~32 mg/mL (≈ 104 mM)

SMILES: CCn1cnc2c1c(=O)n(CCCCC(C)=O)c(=O)n2C [Sample 7, 1-(5-oxohexyl)-3-methyl-7-ethyl-xanthine]
- Cerebral blood perfusion half-life (cerebral blood perfusion; 1 mg/kg i.v.): 1.5 min
- Cerebral blood perfusion relative to comparison sample 8 (cerebral blood perfusion; 1 mg/kg i.v.): about five times higher
- Cerebral blood perfusion Δλ (change of blood perfusion) (cerebral blood perfusion; 1 mg/kg i.v.): +2.46
- Half-life (cerebral) relative to comparison sample 8 (cerebral blood perfusion; 1 mg/kg i.v.): 1.5 times
- Cerebral blood perfusion half-life (cerebral blood perfusion; 2 mg/kg i.v.): 5.0 min
- Cerebral blood perfusion Δλ (change of blood perfusion) (cerebral blood perfusion; 2 mg/kg i.v.): +5.17
- Cerebral blood perfusion half-life (cerebral blood perfusion; 5 mg/kg i.v.): 8.2 min
- Cerebral blood perfusion relative to comparison sample 8 (cerebral blood perfusion; 5 mg/kg i.v.): about nine times higher
- Cerebral blood perfusion Δλ (change of blood perfusion) (cerebral blood perfusion; 5 mg/kg i.v.): +8.07
- Half-life (cerebral) relative to comparison sample 8 (cerebral blood perfusion; 5 mg/kg i.v.): more than three times longer
- Muscular blood perfusion half-life (muscular blood perfusion; 1 mg/kg i.v.): 0.40 min
- Muscular blood perfusion Δλ (change of blood perfusion) (muscular blood perfusion; 1 mg/kg i.v.): +0.22
- Muscular blood perfusion half-life (muscular blood perfusion; 2 mg/kg i.v.): 5.00 min
- Muscular blood perfusion Δλ (change of blood perfusion) (muscular blood perfusion; 2 mg/kg i.v.): +0.10
- Muscular blood perfusion half-life (muscular blood perfusion; 5 mg/kg i.v.): 0.50 min
- Muscular blood perfusion Δλ (change of blood perfusion) (muscular blood perfusion; 5 mg/kg i.v.): +0.20
- change in vivo at 3 mg/kg [1]: -28%
- change in vivo at 10 mg/kg [1]: -96%
- change in vivo at 3 mg/kg [2, 10]: -47%
- change in vivo at 10 mg/kg [2, 10]: -90%
- Broncholytic effect against histamine compared with sample 8 [2]: improved broncholytic effect against histamine
- Change of the bronchospasm in % against acrotonine ([3]; 3 mg/kg i.v.): -42%
- Change of the bronchospasm in % against acrotonine ([3]; 10 mg/kg i.v.): -81%
- Fibrinolytic effect relative to comparison sample 8 (human blood): two times as strong
- Minimum concentration for partial lysis (human blood; 24 hours incubation): 50 mmol
- Minimum concentration for partial lysis (human blood; 48 hours incubation (bracket)): 25 mmol
- LD50 [4, 9]: 250 to 500 mg/kg
- solubility (Solubility): ~20 mg/mL (≈ 68.4 mM)

SMILES: CC(=O)CCCCn1c(=O)c2c(ncn2C)n(C)c1=O [Sample 8, 1-(5-Oxohexyl)-3,7-dimethylxanthine, reference compound]
- Cerebral blood perfusion half-life (cerebral blood perfusion; 1 mg/kg i.v.): 0.9 min
- Cerebral blood perfusion Δλ (change of blood perfusion) (cerebral blood perfusion; 1 mg/kg i.v.): +0.44
- Cerebral blood perfusion half-life (cerebral blood perfusion; 5 mg/kg i.v.): 2.4 min
- Cerebral blood perfusion Δλ (change of blood perfusion) (cerebral blood perfusion; 5 mg/kg i.v.): +0.86
- Cerebral blood perfusion half-life (cerebral blood perfusion; 10 mg/kg i.v.): 8.6 min
- Cerebral blood perfusion Δλ (change of blood perfusion) (cerebral blood perfusion; 10 mg/kg i.v.): +1.15
- Muscular blood perfusion half-life (muscular blood perfusion; 1 mg/kg i.v.): 1.10 min
- Muscular blood perfusion Δλ (change of blood perfusion) (muscular blood perfusion; 1 mg/kg i.v.): +0.02
- Muscular blood perfusion half-life (muscular blood perfusion; 5 mg/kg i.v.): 3.30 min
- Muscular blood perfusion Δλ (change of blood perfusion) (muscular blood perfusion; 5 mg/kg i.v.): +0.03
- Muscular blood perfusion half-life (muscular blood perfusion; 10 mg/kg i.v.): 2.80 min
- Muscular blood perfusion Δλ (change of blood perfusion) (muscular blood perfusion; 10 mg/kg i.v.): +0.15
- Muscular blood perfusion half-life (muscular blood perfusion; 20 mg/kg i.v.): > 15 min
- Muscular blood perfusion Δλ (change of blood perfusion) (muscular blood perfusion; 20 mg/kg i.v.): +1.38
- change in vivo at 3 mg/kg [1]: -15%
- change in vivo at 10 mg/kg [1]: -41%
- change in vivo at 20 mg/kg ([1]; 20 mg/kg i.v.): -72%
- change in vivo at 3 mg/kg [2, 10]: -4%
- change in vivo at 5 mg/kg ([2]; Cavia porcellus, iv, 2 min, 5 mg/kg i.v., 2 min. i.p.): -94%
- change in vivo at 10 mg/kg [2, 10]: -83%
- change in vivo at 20 mg/kg ([2]; Cavia porcellus, iv, 2 min, 20 mg/kg i.v., 2 min. i.p.): -100%
- Inhibition of isoprenaline reaction in % (isolated trancheal chain; concentration 3 × 10^-5): 30%
- Inhibition of isoprenaline reaction in % (isolated trancheal chain; concentration 3 × 10^-6): 0%
- Inhibition of isoprenaline reaction in % (isolated trancheal chain; concentration 10^-4): 89%
- Inhibition of isoprenaline reaction in % (isolated trancheal chain; concentration 10^-5): 5%
- Minimum concentration for partial lysis (human blood; 24 hours incubation): 100 mmol
- Minimum concentration for partial lysis (human blood; 48 hours incubation (bracket)): 50 mmol
- Vascular dilatory action (blood vascular system): vaso-dilatory effect
- Toxicity (mouse [7]): low toxicity

Source: US4289776A, “Xanthine derivatives” (Hoechst Aktiengesellschaft, priority 1973, dated 1981)
